Reference: US20240408167A1, “COMPOSITION FOR TREATING OCULAR DISEASES CONTAINING PEPTIDE” (Encuragen Inc., priority 2023, published 2024)

What was measured:
CD4+IFN-γ+T cell = CD4+IFN-γ+T cell density by flow cytometry, EDE mouse model; assay type: in vivo
Procedure: The cornea, conjunctiva, and each tissue required for analysis were excised with scissors, incised, and shaken with 0.5 mg/mL collagenase type D at 37° C. for 1 hour. After pulverizing the tissue, the resulting mixture was passed through a cell strainer, centrifuged, and resuspended in phosphate-buffered saline containing 1% bovine serum albumin.
In DED, corneal barrier destruction and epithelial cell loss are accompanied by bone marrow and T cell infiltration. Activated T lymphocytes are the primary producers of Th-1 cytokines and interferon (IFN)-γ, which promote cell death at the ocular surface. To evaluate the anti-inflammatory effect of (PEG)-BHD1028 in the EDE mouse model, immune cells that play the role of inflammatory cell surface markers were quantified by flow cytometry with one animal per group.

[1] = test system: mouse experimental dry eye (EDE) model; assay: Tear film break-up time (TBUT), EDE mouse model; assay type: in vivo
Procedure: To confirm the pharmacological effect and appropriate dosage, a pilot study was first conducted with the mice. In addition, a rabbit DED (Dry Eye Disease) model with a large exposed facial area was evaluated in comparison with a mouse model. In the mouse experimental dry eye (EDE) model, scopolamine hydrobromide (Sigma-Aldrich. St. Louis, MO, USA) was subcutaneously injected three times a day (9 a.m., 1:30 p.m., 6 p.m.) in a room exposed to ventilation with an ambient humidity of less than 40% at 25±2° C. to induce DED.
The mice were randomly divided into five groups: (1) EDE (experimental dry eye) control mice without eye drops administration, (2) EDE mice treated with a vehicle (phosphate-buffered saline), (3) EDE mice treated with 0.001% (PEG)-BHD1028 (4) EDE mice treated with 0.01% (PEG)-BHD1028, and (5) EDE mice treated with 0.1% (PEG)-BHD1028. All the treatment groups received 2 μL of eye drops three times a day.
TBUT is the time elapsed between the last blink and the first appearance of fluorescein decomposition, and it is an indicator of tear film stability. TBUT was evaluated by administering 1 μL of 1% fluorescein sodium dye to the lower conjunctival sac of the mice and visualizing the tear film using cobalt blue light of a slit-lamp biomicroscope. The measurement was repeated three times to obtain an average value.
Tear film instability is an important pathological characteristic of DED and the most common indicator of tear quality. […] The improvement in the 0.01% (PEG)-BHD1028 group was greater than that in the 0.001% (PEG)-BHD1028 group on Day 10 (p<0.05), but there was no difference between 0.01% and 0.1%.

NH2-Tyr-Tyr-Phe-Ala-Tyr-His-Pro-Asn-Ile-Pro-Gly-Leu-Tyr-Tyr-Phe-COOH (H-YYFAYHPNIPGLYYF-OH; also: PEGylated, site not given here (mPEG), acetate salt) [(PEG)-BHD1028]
CD4+IFN-γ+T cell density (CD4+IFN-γ+T cell; conjunctiva, 0.001%): 18.96%
CD4+IFN-γ+T cell density (CD4+IFN-γ+T cell; conjunctiva, 0.01%): 15.31%
CD4+IFN-γ+T cell density (CD4+IFN-γ+T cell; conjunctiva, 0.1%): 9.91%
CD4+IFN-γ+T cell density (CD4+IFN-γ+T cell; cornea, 0.001%): 18.62%
CD4+IFN-γ+T cell density (CD4+IFN-γ+T cell; cornea, 0.01%): 16.78%
CD4+IFN-γ+T cell density (CD4+IFN-γ+T cell; cornea, 0.1%): 11.66%
CD4+IFN-γ+T cell density (CD4+IFN-γ+T cell; lacrimal gland, 0.001%): 18.45%
CD4+IFN-γ+T cell density (CD4+IFN-γ+T cell; lacrimal gland, 0.01%): 14.60%
CD4+IFN-γ+T cell density (CD4+IFN-γ+T cell; lacrimal gland, 0.1%): 10.70%
TBUT ([1]; 0.001%, Day 5): 1.333 ± 0.081 s
TBUT ([1]; 0.001%, Day 10): 1.359 ± 0.140 s
TBUT ([1]; 0.01%, Day 5): 1.406 ± 0.082 s
TBUT ([1]; 0.01%, Day 10): 1.530 ± 0.137 s
TBUT ([1]; 0.1%, Day 5): 1.408 ± 0.095 s
TBUT ([1]; 0.1%, Day 10): 1.483 ± 0.113 s
